Laboratory results from patent publication US20240368133A1, “Compounds for the Treatment of Pain, in Particular, Neuropathic Pain, and/or Other Diseases or Disorders that are Associated with AT2R and/or AT2R Mediated Signaling” (Confo Therapeutics N.V., priority 2021, published 2024).

Experiments:
human AT2R fused to Cb23 = human AT2R fused to Cb23 (Homo sapiens, UniProt P50052); experiment: Radioligand binding assay, displacement of 125I-[Sar1, Ile8]-Angiotensin II, hAT2R Cb23; conditions: displacement of 125I-[Sar1, Ile8]-Angiotensin II, human AT2R fused to Cb23, HEK-293 cell membrane preparations; read-out: Binding affinity on hAT2R_Cb23 IC50
Sequence of human AT2R fused to Cb23 (P50052 whole entry, looked up, the tested form may be a part): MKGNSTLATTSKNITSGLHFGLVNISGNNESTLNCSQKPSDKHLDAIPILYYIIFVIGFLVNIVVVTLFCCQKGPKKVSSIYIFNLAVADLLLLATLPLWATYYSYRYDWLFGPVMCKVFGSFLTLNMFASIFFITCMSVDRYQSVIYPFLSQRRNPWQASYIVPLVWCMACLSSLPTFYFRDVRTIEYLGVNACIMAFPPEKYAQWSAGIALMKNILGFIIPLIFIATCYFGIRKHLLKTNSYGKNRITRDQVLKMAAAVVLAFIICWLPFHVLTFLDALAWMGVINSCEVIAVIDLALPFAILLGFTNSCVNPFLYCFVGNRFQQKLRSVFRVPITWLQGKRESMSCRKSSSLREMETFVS
Procedure, shortened: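 Membranes from HEK-293 cells expressing human AT2R fused to Cb23 were incubated with 0.05 nM 125I-[Sar1, Ile8]-Angiotensin II in 100 μL buffer (50 mM Tris, 5 mM MgCl2, 1 mM EDTA, 0.1% BSA, pH 7.4) for one hour at 25° C. Ligands were tested as eight-point dose-response curves in duplicate, with C21 and Angiotensin II as references.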

human AT1R = human AT1R (Homo sapiens (Human), UniProt P30556); experiment: Counterscreen radioligand binding assay, displacement of 125I-[Sar1, Ile8]-Angiotensin II, hAT1R WT; conditions: for inhibition at 1 µM: read-out: % Displaced radioligand at 1 μM; for inhibition at 10 µM: read-out: % Displaced radioligand at 10 μM; for IC50: HEK-293 cell membranes, read-out: Binding affinity On hAT1R IC50
Sequence of human AT1R (P30556 whole entry): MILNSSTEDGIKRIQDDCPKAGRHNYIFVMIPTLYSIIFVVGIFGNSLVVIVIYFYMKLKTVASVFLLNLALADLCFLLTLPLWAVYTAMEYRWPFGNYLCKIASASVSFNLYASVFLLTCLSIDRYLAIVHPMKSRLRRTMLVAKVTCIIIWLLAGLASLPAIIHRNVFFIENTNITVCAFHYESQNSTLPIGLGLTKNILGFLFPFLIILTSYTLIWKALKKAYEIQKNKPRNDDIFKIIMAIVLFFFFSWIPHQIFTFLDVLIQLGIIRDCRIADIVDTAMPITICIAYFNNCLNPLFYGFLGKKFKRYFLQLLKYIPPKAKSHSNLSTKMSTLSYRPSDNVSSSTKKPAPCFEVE
Procedure, shortened: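 Membranes from HEK-293 cells expressing human AT1R were incubated for one hour at 25° C, pH 7.4, with 0.05 nM radiolabelled [Sar1, Ile8]-Ang II and test ligand. Bound radioactivity was collected on PEI-soaked filters, with 10 μM unlabelled [Sar1]-Ang II defining non-specific binding. Results are percent displacement at 1 μM and […], or IC50 from eight-point duplicate curves.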

[1] = 125I-[Sar1, Ile8]-Ang II, compound at 1 μM, semi-quantitative score
[2] = 125I-[Sar1, Ile8]-Ang II, compound at 10 μM, semi-quantitative score

Row | IC50 (human AT2R fused to Cb23) [nM] | inhibition at 1 µM (human AT1R; [1]) [%] | inhibition at 10 µM (human AT1R; [2]) [%] | IC50 (human AT1R) [nM] | % Displaced radioligand at 1 μM (human AT1R; [1]) | % Displaced radioligand at 10 μM (human AT1R; [2]) | SMILES
1 | 122 | < 30 | < 30 |  |  |  | CC(C)Cc1cc(F)c(-c2nn[nH]n2)c(N2CCN(C(C)c3ccccn3)[C@@H](C)C2)c1 (stereo partly drawn) [Compound A-218, (2S)-4-[3-fluoro-5-isobutyl-2-(2H-tetrazol-5-yl)phenyl]-2-methyl-1-[1-(2-pyridyl)ethyl]piperazine]
2 | 681 | < 30 | < 30 | 55200 |  |  | Cc1cnc(CN2CCN(c3c(-c4nn[nH]n4)ccc(CC(C)C)c3F)CC2)s1 [Compound A-219, 2-[[4-[2-fluoro-3-isobutyl-6-(2H-tetrazol-5-yl)phen-yl]piperazin-1-yl]-methyl]-5-methyl-thiazole]
3 | 80.7 | < 30 | < 30 |  |  |  | Cc1cnc(CN2CCN(c3cc(CC(C)C)cc(F)c3-c3nn[nH]n3)CC2)s1 [Compound A-220, 2-[[4-[3-fluoro-5-isobutyl-2-(2H-tetrazol-5-yl)phen-yl]piperazin-1-yl]-methyl]-5-methyl-thiazole]
4 | 2740 | < 30 | < 30 |  |  |  | Cc1cnc(CN2CCN(c3cc(CC(C)C)cnc3-c3nn[nH]n3)CC2)s1 [Compound A-221, 2-((4-(5-isobutyl-2-(2H-tetrazol-5-yl)pyridin-3-yl)piperazin-1-yl)methyl)-5-methylthiazole]
5 | 9.47 | < 30 | < 30 |  |  |  | Cc1cnc(CN2CCN(c3cc(CC(C)C)cc(F)c3-c3nn[nH]n3)CC2C)s1 (stereo not drawn) [Compound A-222, 2-[[4-[3-fluoro-5-isobutyl-2-(2H-tetrazol-5-yl)phenyl]-2-methyl-piperazin-1-yl]methyl]-5-methyl-thiazole]
6 | 92.2 | < 30 | < 30 |  |  |  | Cc1cnc(CN2C(C)CN(c3cc(CC(C)C)cc(F)c3-c3nn[nH]n3)CC2C)s1 (stereo not drawn) [Compound A-224, 2-[[4-[3-fluoro-5-isobutyl-2-(2H-tetrazol-5-yl)phen-yl]-2,6-dimethyl-piperazin-1-yl]-methyl]-5-methyl-thiazole]
7 | 54.1 |  |  |  | * (* <30%) | * (* <30%) | Cc1cnc(C(C)N2CCN(c3cc(CC(C)C)cc(F)c3-c3nn[nH]n3)CC2)s1 (stereo not drawn) [Compound A-225, 2-[1-[4-[3-fluoro-5-isobutyl-2-(2H-tetrazol-5-yl)phen-yl]piperazin-1-yl]-ethyl]-5-methyl-thiazole]
8 | 37.2 | < 30 | < 30 |  |  |  | Cc1cnc(C(C)N2CCN(c3cc(CC(C)C)cc(F)c3-c3nn[nH]n3)C[C@@H]2C)s1 (stereo partly drawn) [Compound A-226, 2-[1-[(2S)-4-[3-fluoro-5-isobutyl-2-(2H-tetrazol-5-yl)phenyl]-2-methyl-piperazin-1-yl]ethyl]-5-methyl-thiazole]
9 | 1230 | < 30 | < 30 |  |  |  | CC(C)Cc1ccc(-c2nn[nH]n2)c(N2CCCN(Cc3cccnn3)CC2)c1 [Compound A-230, 1-[5-isobutyl-2-(2H-tetrazol-5-yl)-phenyl]-4-(pyrid-azin-3-ylmethyl)-1,4-diazepane]
10 | 368 | < 30 | 30 to 50 | 18900 |  |  | CC(C)Cc1cc(F)c(-c2nn[nH]n2)c(N2CCCN(Cc3cccnn3)CC2)c1 [Compound A-231, 1-[3-fluoro-5-isobutyl-2-(2H-tetrazol-5-yl)phenyl]-4-(pyridazin-3-ylmethyl)-1,4-diazepane]
11 | 2670 | < 30 | < 30 |  |  |  | CC(C)Cc1ccc(-c2nn[nH]n2)c(N2CC3CN(Cc4cccnn4)CC3C2)c1 (stereo not drawn) [Compound A-232, 5-[5-isobutyl-2-(2H-tetrazol-5-yl)-phenyl]-2-(pyrid-azin-3-ylmethyl)-1,3,3a,4,6,6a-hexahydropyrrolo-[3,4-c]pyrrole]
12 | 1310 | < 30 | < 30 |  |  |  | CC(C)Cc1cc(F)c(-c2nn[nH]n2)c(N2CC3CN(Cc4cccnn4)CC3C2)c1 (stereo not drawn) [Compound A-233, 5-[3-fluoro-5-isobutyl-2-(2H-tetrazol-5-yl)phenyl]-2-(pyridazin-3-ylmethyl)-1,3,3a,4,6,6a-hexahydropyrrolo[3,4-c]pyrrole]
13 | 2020 | < 30 | < 30 |  |  |  | CC(C)Cc1ccc(-c2nn[nH]n2)c(C2CCN(Cc3cccnn3)CC2)c1 [Compound A-234, 3-[[4-[5-isobutyl-2-(2H-tetrazol-5-yl)-phenyl]-1-piperid-yl]methyl]pyrid-azine]
14 | 6890 | < 30 | < 30 |  |  |  | CC(C)Cc1ccc(-c2nn[nH]n2)c(C2CCN(Cc3cccnn3)C2)c1 (stereo not drawn) [Compound A-235, 3-[[3-[5-isobutyl-2-(2H-tetrazol-5-yl)-phenyl]pyrrolidin-1-yl]methyl]pyrid-azine]
15 | 1010 | < 30 | < 30 |  |  |  | CC(C)Cc1ccc(-c2nn[nH]n2)c(N2CC(NCc3cccnn3)C2)c1 [Compound A-236, 1-(5-isobutyl-2-(2H-tetrazol-5-yl)-phenyl)-N-(pyrid-azin-3-ylmethyl)-azetidin-3-amine]
16 | 2570 | < 30 | < 30 |  |  |  | CC(C)Cc1ccc(-c2nn[nH]n2)c(C(=O)N2CCN(Cc3cccnn3)CC2)c1 [Compound A-239, [5-isobutyl-2-(2H-tetrazol-5-yl)phenyl]-[4-(pyridazin-3-ylmethyl)piperazin-1-yl]methanone]
17 | 159 | < 30 | > 50 | 11500 |  |  | CCCN(C(=O)c1cccs1)c1ccc2nc(CC)n(CC3CCN(c4ccccc4-c4nn[nH]n4)CC3)c(=O)c2c1 [Compound A-243, N-[2-ethyl-4-oxo-3-[[1-[2-(2H-tetrazol-5-yl)phen-yl]-4-piperidyl]-methyl]quinazolin-6-yl]-N-propyl-thiophene-2-carbox-amide]
18 | 104 | < 30 | > 50 | 6620 |  |  | CCc1nc2ccc(N(Cc3cccnc3)C(=O)c3cccs3)cc2c(=O)n1CC1CCN(c2ccccc2-c2nn[nH]n2)CC1 [Compound A-244, N-[2-ethyl-4-oxo-3-[[1-[2-(2H-tetrazol-5-yl)phenyl]-4-piperidyl]methyl]quinazolin-6-yl]-N-(3-pyridylmethyl)thiophene-2-carboxamide]
19 | 102 | < 30 | 30 to 50 | 26700 |  |  | CCc1nc2ccc(N(Cc3ccccc3)C(=O)c3cccs3)cc2c(=O)n1CC1CCN(c2ccccc2-c2nn[nH]n2)CC1 [Compound A-246, N-benzyl-N-[2-ethyl-4-oxo-3-[[1-[2-(2H-tetrazol-5-yl)phenyl]-4-piper-idyl]methyl]quin-azolin-6-yl]thio-phene-2-carbox-amide]
20 | 48 | < 30 | < 30 | 40100 |  |  | CCc1nc2ccc(N(Cc3ccccc3Cl)C(=O)c3cccs3)cc2c(=O)n1CC1CCN(c2ccccc2-c2nn[nH]n2)CC1 [Compound A-248, N-[(2-chlorophenyl)methyl]-N-[2-ethyl-4-oxo-3-[[1-[2-(2H-tetrazol-5-yl)phenyl]-4-piperidyl]methyl]quinazolin-6-yl]thiophene-2-carboxamide]
